Experimental data from US8785460B2, “Tricyclic compounds and use thereof” (Takeda Pharmaceutical Company Limited, priority 2008, dated 2014).
Structures can show the parent of a compound that is named as a salt.

These molecules were tested against T1, human CRF1 receptor (Homo sapiens, UniProt P34998) (assay: Measurement of CRF Binding Inhibitory Rate (receptor binding experiment with 125I-CRF)). Details: human CRF1 receptor expressing CHO cellular membrane fraction, 50 pM 125I-CRF, room temperature 1.5 hr, 0.05 nM to 10 μM of compound; read-out: IC50 values (CRF binding inhibition).
T1 construct: expressed in transfected cells; host or cells: CHO cells (membrane fraction)
T1 sequence (P34998 24-415): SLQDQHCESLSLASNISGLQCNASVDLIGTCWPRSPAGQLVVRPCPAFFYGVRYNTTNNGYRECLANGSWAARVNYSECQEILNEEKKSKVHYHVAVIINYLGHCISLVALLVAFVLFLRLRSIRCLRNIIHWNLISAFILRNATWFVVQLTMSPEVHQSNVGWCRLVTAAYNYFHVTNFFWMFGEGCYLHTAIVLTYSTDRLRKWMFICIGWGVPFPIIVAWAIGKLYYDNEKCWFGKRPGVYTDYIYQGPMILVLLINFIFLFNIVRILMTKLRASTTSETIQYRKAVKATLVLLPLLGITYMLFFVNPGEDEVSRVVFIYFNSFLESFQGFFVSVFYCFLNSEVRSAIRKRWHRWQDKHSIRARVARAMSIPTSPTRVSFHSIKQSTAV
Experimental: Measurement of CRF Binding Inhibitory Rate
A receptor binding experiment was carried out using a human CRF1 receptor expressing CHO cellular membrane fraction and ovine CRF, [^125I]-tyr^0(^125I-CRF). 1000 nM of a test compound was incubated with 1 μg of human CREF receptor expressing CHO cellular membrane fraction and 50 pM of ^125I-CRF in a binding assay buffer (50 mM Tris-HCl, 5 mM EDTA, 10 mM MgCl2, 0.05% CHAPS, 0.1% BSA, 0.5 mM PMSF, 0.1 μg/mL pepstatin, 20 μg/mL leupeptin, pH 7.5). In addition, for measuring nonspecific binding (NSB), 0.1 μM unlabelled human Urocortin was incubated with 5 μg of human CRE receptor expressing CHO cellular membrane fraction and 50 pM of ^125I-CRF in a binding assay buffer. After a binding reaction was carried out at room temperature for 1.5 hr, the membrane was entrapped on a glass filter (UniFilter plate GF-C/Perkin Elmer) by suction filtration using a cell harvester (Perkin Elmer), and washed with ice-cooled 50 mM Tris-HCl (pH 7.5). After drying the glass filter, a liquid scintillation cocktail (Microscinti 0, Perkin Elmer) was added, and the radioactivity of ^125I-CRF remaining on a glass filter was measured using Topcount (Perkin Elmer).
(TB−SB)/(TB−NSB)×100 (SB: radioactivity when a compound is added, TB: maximum binding radioactivity, NSB: nonspecific binding radioactivity) were calculated to obtain binding inhibitory rates under the range of the presence from 0.05 nM to 10 μM of each compound. The IC50 values were calculated by using GraphPad Prism software.

Structure (SMILES)	IC50
C=CCCC(O)c1ccc(Cl)c2nc3n(c12)CCCN3c1c(C)cc(Cl)cc1Cl (stereo not shown) [Example 381, 1-[9-Chloro-1-(2,4-dichloro-6-methylphenyl)-1,2,3,4-tetrahydropyrimido[1,2-a]benzimidazol-6-yl]pent-4-en-1-ol]	< 1000 nM
CCC(CC)c1ccc(Cl)c2nc3n(c12)CCCCN3c1ccc(OC(F)(F)F)cc1 [Example 40, 10-Chloro-7-(1-ethylpropyl)-1-[4-(trifluoromethoxy)phenyl]-2,3,4,5-tetrahydro-1H-[1,3]diazepino[1,2-a]benzimidazole]	< 1000 nM
CCN(CC)c1cccc2nc3n(c12)CCC(=O)NC3c1ccc(Cl)cc1Cl (stereo not shown) [Example 487, 1-(2,4-Dichlorophenyl)-7-(diethylamino)-1,2,4,5-tetrahydro-3H-[1,4]diazepino[1,2-a]benzimidazol-3-one]	< 1000 nM
CCC(OC(C)C)c1ccc(Cl)c2nc3n(c12)CCCN3c1ccc(Cl)cc1Cl (stereo not shown) [Example 237, 9-Chloro-1-(2,4-dichlorophenyl)-6-[1-(1-methylethoxy)propyl]-1,2,3,4-tetrahydropyrimido[1,2-a]benzimidazole]	< 1000 nM
CCC(CC)c1ccc(Cl)c2nc3n(c12)CCCCN3c1ccc(C)cc1C=O [Example 34, 2-[10-Chloro-7-(1-ethylpropyl)-2,3,4,5-tetrahydro-1H-[1,3]diazepino[1,2-a]benzimidazol-1-yl]-5-methylbenzaldehyde]	< 1000 nM
CCOc1ccc(N2CCCn3c2nc2c(Cl)ccc(C(OC(F)F)=C(F)F)c23)c(C)n1 [Example 286, 9-Chloro-6-[1-(difluoromethoxy)-2,2-difluoroethenyl]-1-(6-ethoxy-2-methylpyridin-3-yl)-1,2,3,4-tetrahydropyrimido[1,2-a]benzimidazole]	< 1000 nM
OC(c1ccc(Cl)c2nc3n(c12)CCCOC3c1ccc(Cl)cc1Cl)(C1CC1)C1CC1 (stereo not shown) [Example 500, [10-Chloro-1-(2,4-dichlorophenyl)-4,5-dihydro-1H,3H-[1,4]oxazepino[4,3-a]benzimidazol-7-yl](dicyclopropyl)methanol]	< 1000 nM
CCC(CC)c1ccc(Cl)c2nc3n(c12)CCCCN3c1ccc(OC(F)(F)F)cc1CN(C)C [Example 42, 1-[2-[10-Chloro-7-(1-ethylpropyl)-2,3,4,5-tetrahydro-1H-[1,3]diazepino[1,2-a]benzimidazol-1-yl]-5-(trifluoromethoxy)phenyl]-N,N-dimethylmethanamine hydrochloride]	< 1000 nM
CCC(CC)c1ccc(Cl)c2nc3n(c12)CCCCN3c1c(C)nn(C)c1C [Example 24, 10-Chloro-7-(1-ethylpropyl)-1-(1,3,5-trimethyl-1H-pyrazol-4-yl)-2,3,4,5-tetrahydro-1H-[1,3]diazepino[1,2-a]benzimidazole]	< 1000 nM
CCC(c1ccc(Cl)c2nc3n(c12)CCCN3c1ccc(Cl)cc1Cl)C(C)O (stereo not shown) [Example 404, 3-[9-Chloro-1-(2,4-dichlorophenyl)-1,2,3,4-tetrahydropyrimido[1,2-a]benzimidazol-6-yl]pentan-2-ol]	< 1000 nM
CC/C(=N\OC)c1ccc(Cl)c2nc3n(c12)CCCN3c1ccc(Cl)cc1Cl [Example 121, (1E)-1-[9-Chloro-1-(2,4-dichlorophenyl)-1,2,3,4-tetrahydropyrimido[1,2-a]benzimidazol-6-yl]propan-1-one O-methyloxime]	< 1000 nM
COc1ccc(N2CCCCn3c2nc2c(Cl)ccc(CO)c23)c(Cl)c1 [Example 331, [10-Chloro-1-(2-chloro-4-methoxyphenyl)-2,3,4,5-tetrahydro-1H-[1,3]diazepino[1,2-a]benzimidazol-7-yl]methanol]	< 1000 nM
CCC(c1ccc(Cl)c2nc3n(c12)CCCN3c1ccc(Cl)cc1Cl)C(O)C(F)(F)F (stereo not shown) [Example 317, 3-[9-chloro-1-(2,4-dichlorophenyl)-1,2,3,4-tetrahydropyrimido[1,2-a]benzimidazol-6-yl]-1,1,1-trifluoropentan-2-ol]	< 1000 nM
